Our source for the MIC, Activity and IC50 values is ChEMBL document CHEMBL3046790, “Antioxidant potential and antimicrobial screening of some novel imidazole derivatives: greenway efficient one pot synthesis” (Med Chem Res, 2012).

Converted amounts (≈) assume the structure as drawn.

What all share (type): functional
Assay [1] has as its system Aspergillus flavus. The experiment in a line: Antimicrobial activity against Aspergillus flavus after 24 hr.
Assay [2] concerns Aspergillus niger. The experiment in a line: Antimicrobial activity against Aspergillus niger after 24 hr.
Assay [3] deals with Candida. Nature of the assay: Antimicrobial activity against Candida-6 after 24 hr. The conditions noted are these: Candida, 6, 24 h.
Assay [4] relates to Klebsiella pneumoniae. Nature of the assay: Antimicrobial activity against Klebsiella pneumoniae after 24 hr.
Assay [5] can be described thus: Antioxidant activity assessed as superoxide scavenging activity at 40 uM after 15 min by PMS/NADH-NBT assay.
The nature of assay [6]: Antioxidant activity assessed as hydroxyl radical scavenging activity at 20 uM after 60 min using thiobarbutaric acid by spectrophotometry.
The subject of assay [7] is Escherichia coli. Nature of the assay: Antimicrobial activity against Escherichia coli after 24 hr.
Assay [8] in a line: Antioxidant activity assessed as superoxide scavenging activity at 20 uM after 15 min by PMS/NADH-NBT assay.
Assay [9] relates to Staphylococcus aureus. Nature of the assay: Antimicrobial activity against Staphylococcus aureus after 24 hr.
A short description of assay [10]: Antioxidant activity assessed as DPPH scavenging activity at 20 uM after 30 min by spectrophotometry.
Assay [11] in a line: Antioxidant activity assessed as DPPH scavenging activity at 30 uM after 30 min by spectrophotometry.
Assay [12] is described as follows: Antioxidant activity assessed as hydroxyl radical scavenging activity at 40 uM after 60 min using thiobarbutaric acid by spectrophotometry.
The nature of assay [13]: Antioxidant activity assessed as superoxide scavenging activity after 15 min by PMS/NADH-NBT assay.
A short description of assay [14]: Antioxidant activity assessed as DPPH scavenging activity at 40 uM after 30 min by spectrophotometry.
The nature of assay [15]: Antioxidant activity assessed as superoxide scavenging activity at 10 uM after 15 min by PMS/NADH-NBT assay.
Assay [16] is described as follows: Antioxidant activity assessed as DPPH scavenging activity at 50 uM after 30 min by spectrophotometry.
A short description of assay [17]: Antioxidant activity assessed as hydroxyl radical scavenging activity at 80 uM after 60 min using thiobarbutaric acid by spectrophotometry.
A short description of assay [18]: Antioxidant activity assessed as hydroxyl radical scavenging activity at 100 uM after 60 min using thiobarbutaric acid by spectrophotometry.
A short description of assay [19]: Antioxidant activity assessed as hydroxyl radical scavenging activity at 60 uM after 60 min using thiobarbutaric acid by spectrophotometry.
Assay [20] is described as follows: Antioxidant activity assessed as DPPH scavenging activity after 30 min by spectrophotometry.
Assay [21] in a line: Antioxidant activity assessed as superoxide scavenging activity at 100 uM after 15 min by PMS/NADH-NBT assay.
The nature of assay [22]: Antioxidant activity assessed as hydroxyl radical scavenging activity at 10 uM after 60 min using thiobarbutaric acid by spectrophotometry.
Assay [23] in a line: Antioxidant activity assessed as superoxide scavenging activity at 80 uM after 15 min by PMS/NADH-NBT assay.
Assay [24] is described as follows: Antioxidant activity assessed as superoxide scavenging activity at 60 uM after 15 min by PMS/NADH-NBT assay.
Assay [25] is described as follows: Antioxidant activity assessed as hydroxyl radical scavenging activity after 60 min using thiobarbutaric acid by spectrophotometry.
Assay [26] can be described thus: Antioxidant activity assessed as DPPH scavenging activity at 10 uM after 30 min by spectrophotometry.

For `C[C@@H]1[C@H](O)[C@@H](C)/C=C/C=C/C=C/C=C/C=C/C=C/C=C/[C@H](O[C@@H]2O[C@H](C)[C@@H](O)[C@H](N)[C@@H]2O)C[C@@H]2O[C@](O)(C[C@@H](O)C[C@@H](O)[C@H](O)CC[C@@H](O)C[C@@H](O)CC(=O)O[C@H]1C)C[C@H](O)[C@H]2C(=O)O` [AMPHOTERICIN B], the MIC worked out at 25 µg/mL (≈ 27.1 µM) in assay [1], 50 µg/mL (≈ 54.1 µM) in assay [2] and 12.5 µg/mL (≈ 13.5 µM) in assay [3].

Turning to `O=C(O)c1cn(C2CC2)c2cc(N3CCNCC3)c(F)cc2c1=O` [CIPROFLOXACIN], 100 µg/mL (≈ 302 µM) was the least that counted as inhibitory in assay [4] (MIC).

Take `COc1ccc(-n2c(-c3ccc(F)cc3)nc(C)c2C)cc1`: the Activity in assay [5] is 39%; in [6] it was 48.3%; in assay [8], 39%; in assay [10], 20.2%; in assay [11] it was 46.5%; in [12] it was 43.7%. Besides, the Activity entry was “Dose-dependent effect” in assay [13]; 64.6% in assay [14]; 38.1% in assay [15]; 68.7% in [16]; 50.6% in assay [17]; 52.9% in assay [18]. Further, the Activity in assay [19] is 48.3%; in [20], “Dose-dependent effect”; in [21], 41%; in assay [22], 39.1%; in [23] it was 45.7%; in assay [24], 41.9%. In addition, the Activity result in [25] is “Dose-dependent effect”; in assay [26] it was 11.1%. The MIC in [7] was 25 µg/mL (≈ 84.4 µM); in [4], 50 µg/mL (≈ 169 µM); in assay [9], 50 µg/mL (≈ 169 µM); in assay [1] it was 25 µg/mL (≈ 84.4 µM); in assay [2], 25 µg/mL (≈ 84.4 µM); in assay [3], 25 µg/mL (≈ 84.4 µM). Also, the results for the IC50 in assay [13], in [20] and in [25] were 5.2 µg/mL (≈ 17.5 µM), 3.46 µg/mL (≈ 11.7 µM) and 3.84 µg/mL (≈ 13 µM), respectively.

Turning to `COc1cc(OC)cc(-n2c(-c3ccccc3)nc(C)c2C)c1`, the Activity in [5] was 49.5%; in assay [6] it was 39.1%; in [8], 32.4%; in assay [10], 20.2%; in assay [11] it was 52.5%; in [12], 47.1%. For the same molecule, the Activity entry in [13] is “Dose-dependent effect”; in assay [14] it was 57.6%; in [15], 13.3%; in assay [16] it was 55.5%; in assay [17], 55.2%; in assay [18] it was 58.6%. In addition, the Activity in assay [19] is 54%; in assay [20] it was “Dose-dependent effect”; in [21], 61%; in assay [22], 34.5%; in assay [23] it was 59%; in [24], 53.3%. Further, the Activity entry in assay [25] was “Dose-dependent effect”; in assay [26], 17.2%. In addition, the minimal inhibitory concentration (MIC) in assay [7] turned out to be 50 µg/mL (≈ 162 µM); in assay [4] it was 100 µg/mL (≈ 324 µM); in assay [9] it was 25 µg/mL (≈ 81.1 µM); in assay [1], 25 µg/mL (≈ 81.1 µM); in [2], 25 µg/mL (≈ 81.1 µM); in assay [3], 25 µg/mL (≈ 81.1 µM). Besides, the IC50 was found to be 4.16 µg/mL (≈ 13.5 µM) in assay [13], 3.8 µg/mL (≈ 12.3 µM) in [20] and 4.14 µg/mL (≈ 13.4 µM) in assay [25].

Turning to `COc1cc(OC)cc(-n2c(-c3ccc(F)cc3)nc(C)c2C)c1`, the Activity in assay [5] stood at 55.2%; in [6], 40.2%; in [8], 24.8%; in assay [10] it was 19.2%; in assay [11], 42.4%; in [12], 47.1%. Besides, the Activity result is “Dose-dependent effect” in [13]; 57.6% in assay [14]; 21.9% in [15]; 56.6% in assay [16]; 55.2% in assay [17]; 54% in assay [18]. The Activity was 57.5% in assay [19]; “Dose-dependent effect” in [20]; 55.2% in assay [21]; 35.6% in [22]; 58.1% in assay [23]; 60% in assay [24]. Further, the Activity entry is “Dose-dependent effect” in assay [25] and 12.1% in assay [26]. Also, the MIC in assay [7] came to 50 µg/mL (≈ 153 µM); in assay [4] it was 100 µg/mL (≈ 306 µM); in assay [9], 50 µg/mL (≈ 153 µM); in assay [1], 50 µg/mL (≈ 153 µM); in assay [2], 50 µg/mL (≈ 153 µM); in assay [3], 50 µg/mL (≈ 153 µM). The IC50 in assay [13] was 4.16 µg/mL (≈ 12.7 µM); in assay [20], 3.98 µg/mL (≈ 12.2 µM); in assay [25], 4.18 µg/mL (≈ 12.8 µM).

Consider `COc1ccc(-n2c(-c3ccccc3)nc(C)c2C)cc1`, for which the Activity in assay [5] was 63.1%; in assay [6] it was 40.2%; in [8], 28.1%; in assay [10], 28.3%; in assay [11], 59.6%; in assay [12], 43.7%. Further, the Activity result is “Dose-dependent effect” in assay [13]; 56.6% in [14]; 10.5% in [15]; 55.5% in [16]; 50.6% in assay [17]; 52.9% in assay [18]. Besides, the Activity in assay [19] was 48.3%; in [20] it was “Dose-dependent effect”; in assay [21], 59.6%; in assay [22], 35.6%; in assay [23], 68.4%; in [24], 64.9%. The values for the Activity result in [25] and in assay [26] were “Dose-dependent effect” and 14.1%, respectively. The MIC in [7] came out at 25 µg/mL (≈ 89.8 µM); in assay [4], 100 µg/mL (≈ 359 µM); in assay [9], 50 µg/mL (≈ 180 µM); in assay [1], 25 µg/mL (≈ 89.8 µM); in [2], 100 µg/mL (≈ 359 µM); in assay [3], 25 µg/mL (≈ 89.8 µM). For the same molecule, the IC50 is 3.74 µg/mL (≈ 13.4 µM) in [13], 3.64 µg/mL (≈ 13.1 µM) in assay [20] and 4.5 µg/mL (≈ 16.2 µM) in assay [25].

Turning to `O=C1O[C@H]([C@@H](O)CO)C(O)=C1O` [ASCORBIC ACID], the Activity in assay [5] came out at 55.5%; in assay [6] it was 41.3%; in [8] it was 48.8%; in assay [10] it was 34.5%; in assay [11], 48.8%; in assay [12] it was 48.6%. Also, the Activity amounted to 66.5% in assay [14]; 32.6% in assay [15]; 75.4% in [16]; 70.4% in assay [17]; 78.5% in assay [18]; 65.3% in assay [19]. Further, the Activity in [21] was 73.5%; in assay [22] it was 24.3%; in assay [23], 66.5%; in [24], 62.1%; in assay [26], 26.5%. The IC50 in assay [13] was 2.8 µg/mL (≈ 15.9 µM); in assay [20] it was 3.1 µg/mL (≈ 17.6 µM); in assay [25], 2.72 µg/mL (≈ 15.4 µM).
